Results taken from PMC7857580, “Substitutional landscape of a split fluorescent protein fragment using high-density peptide microarrays” (PLoS ONE, 2021).
Ends that are not written are not given here.

Molecular target: LOO10-GFP (Aequorea victoria, UniProt P42212, S30R/Y39N/F64L/S65T/F99S/N105T/Y145F/M153T/V163A/I171V, form not given)
Assay type: binding
Settings: read-out: Kd (dissociation constant between s10 peptide and LOO10-GFP); 50 nM LOO10-GFP, 0-2500 nM peptide, assay buffer pH 8, overnight 4°C, read at 25°C; 390ex/506em (WT, H199Y) or 495ex/520em (T203Y, H199Y/T203Y); quadratic fit; 3 independent measurements
Experimental: Fluorescence of each sample was measured at 390/506 nm for T203 variants and at 495/520 nm for Y203 variants, at 25°C, excitation slit 12 nm, emission slit 20 nm and 10s integration time. The affinity experiments were performed in 3 independent replicas for each peptide variant. […] All fits were performed in OriginPro 2017.

Sequence of LOO10-GFP (P42212 whole entry S30R/Y39N/F64L/S65T/F99S/N105T/Y145F/M153T/V163A/I171V, form open): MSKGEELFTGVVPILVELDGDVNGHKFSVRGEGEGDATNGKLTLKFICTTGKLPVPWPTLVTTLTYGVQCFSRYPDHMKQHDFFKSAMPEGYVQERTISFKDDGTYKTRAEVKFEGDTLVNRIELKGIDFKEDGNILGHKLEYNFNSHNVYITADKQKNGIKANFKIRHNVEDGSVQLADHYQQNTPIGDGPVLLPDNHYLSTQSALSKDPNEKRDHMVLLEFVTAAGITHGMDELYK

| Sequence | Kd [nM] |
| --- | --- |
| NHYLSTQTVLS [WT] | 280 ± 83 |
| NHYLSYQTVLS [T203Y] | 152 ± 47 |
| NYYLSTQTVLS [H199Y] | 53.4 ± 0.4 |
| NYYLSYQTVLS [H199Y/T203Y] | 32.6 ± 6.3 |
